# In patent publication US20230277569A1, “Compositions and Methods for Treating, Ameliorating and/or Preventing Cancer and Kits for the Same” (priority 2022, published 2023):
# Entries after “also recorded” stand apart in the source; their conditions may differ. Where two headings read alike, the source gives them in different places.
# Assays:
# [1] = Toxicity in beagle dogs, IV infusion for 36 d; assay type: in vivo; settings: beagle, dog, in vivo, iv, dogs; for AUC(0-t): read-out: AUC0-24
# Procedure: (§1) Eighteen male and female (5-6 mo old) purebred beagle dogs (Cumberland, Va.) were acclimated for 47 d (20 to 26° C., relative humidity 30-70%, 10 or greater air changes/h, and a 12-h light/dark cycle) prior to study initiation. Animals were given water ad libitum and Certified Canine Diet #5007 (PMI Nutrition International Certified LabDiet®) for 4 to 5 h each day. At study initiation, animal body weights ranged from 8.6 to 11.5 kg for males and 6.0 to 9.4 kg for females. At least 1 week prior to initiation of dosing, animals were fasted overnight, anesthetized, and a catheter attached to a subcutaneous vascular access port was surgically implanted into a jugular vein. Animals were acclimated to infusion jackets prior to catheter implantation surgery. Animals were infused with sterile saline at a dose rate of 5 mL/h when the vascular access ports were accessed and when animals were connected to the infusion system (except when dosed with the test or vehicle control article). The patency of each catheter was checked as needed. Prednisolone tablets were administered orally at 2 mg/kg the night prior to dosing. Diphenhydramine (5 mg/kg; IM injection 0.1 mL/kg, 50 mg/mL) was administered prior to dosing and post the start of infusion (d 1 only). Male and female dogs received dose levels of Gamitrinib of 1.25, 3.33 and 6.25 mg/kg/dose formulated as indicated above during a 1 h infusion on d 1, 8, 11, 15, 18, 22, 25, 29, 32, and 36 at a volume of 2 mL/kg. The vehicle control was as above. […] Dosing was stopped, and 23 of 24 animals were administered additional diphenhydramine, 11 were administered Flunixin meglumine and buprenorphine, and 6 were administered acepromazine. Symptoms subsided in all animals after completion of these interventions. As a result of these observations, the polysorbate levels, which were increased from 0.025% (w/v) to 0.125% (w/v) to minimize precipitation, were returned to the original concentrations; 2 mg/kg prednisone was administered orally the night prior to dosing; and the diphenhydramine pretreatment dose was updated to 5 mg/kg 15 to 30 min prior to dosing. Detailed observations were conducted for each animal up to seven times during the predose phase, prior to dosing on d 1, 8, 15, 22, 29, and 36 of the dosing phase, and on d 1, 7, and 14 of the recovery phase. Blood samples (1 mL) were collected via the cephalic vein 5, 15, and 30 min and 1, 4, 8, and 24 h post the end of infusion on d 8 and 36 of the dosing phase. Formalin-fixed and paraffin-embedded tissue samples collected at the end of the study (d 39) were processed for histologic examination.
# beagle dogs = test: Toxicity in beagle dogs, IV infusion for 36 d; assay type: in vivo
# Procedure: as §1
# [2] = 3.33 mg/kg/dose (NOAEL), d 36 of dosing, both sexes
# [3] = 6.25 mg/kg/dose (HNSTD), d 36, both sexes
compound,measurement,setting,value
"CO[C@H]1/C=C\C=C(/C)C(=O)NC2=CC(=O)C(NCCCCCC[P+](c3ccccc3)(c3ccccc3)c3ccccc3)=C(C[C@@H](C)C[C@H](OC)[C@H](O)[C@@H](C)/C=C(\C)[C@@H]1OC(N)=O)C2=O [Gamitrinib, 17-Demethoxy-17-((6-(triphenylphosphonio)hexyl)amino)geldanamycin]",Cmax,[1]; [2],560 ± 404 ng/mL
same,AUC(0-t),[1]; [2],1740 ± 713 ng·h/mL
same,Cmax,[1]; [3],1260 ± 556 ng/mL
same,AUC(0-t),[1]; [3],3290 ± 1090 ng·h/mL
same,NOAEL,"beagle dogs; beagle dogs, IV for 36 d",3.33 mg/kg/dose
same,highest non-severely toxic dose (HNSTD),"beagle dogs; beagle dogs, IV for 36 d",6.25 mg/kg/dose
same,Bone marrow and liver parameters,"beagle dogs; dog, in vivo",unremarkable
same,changes in organ weights,"beagle dogs; dog, in vivo",No Gamitrinib-related changes
same,serum urea nitrogen and creatinine,"beagle dogs; dogs (both sexes), 6.25 mg/kg/dose, 6.25 mg/kg",trend of increased serum urea nitrogen and creatinine; also recorded: modest elevation of urea nitrogen and creatinine concentrations
same,kidney microscopic finding,"beagle dogs; dogs, 6.25 mg/kg/dose, reversible during recovery",slight to moderate kidney tubular degeneration/regeneration
same,alterations in body weight or other clinical observations,"beagle dogs; dogs, 1.25, 3.33 and 6.25 mg/kg/dose",no alterations
same,Body weight,"beagle dogs; female dogs, 3.33 mg/kg, day 1",7.6 ± 0.9 kg
same,Body weight,"beagle dogs; female dogs, 3.33 mg/kg, day 8",7.6 ± 0.9 kg
same,Body weight,"beagle dogs; female dogs, 3.33 mg/kg, day 15",7.6 ± 1.06 kg
same,Body weight,"beagle dogs; female dogs, 3.33 mg/kg, day 22",7.5 ± 0.75 kg
same,Body weight,"beagle dogs; female dogs, 3.33 mg/kg, day 29",7.6 ± 0.7 kg
same,Body weight,"beagle dogs; female dogs, 3.33 mg/kg, day 36",7.5 ± 0.8 kg
same,Body weight,"beagle dogs; female dogs, 6.25 mg/kg, day 1",7.7 ± 0.57 kg
same,Body weight,"beagle dogs; female dogs, 6.25 mg/kg, day 8",7.7 ± 0.62 kg
same,Body weight,"beagle dogs; female dogs, 6.25 mg/kg, day 15",7.4 ± 0.54 kg
same,Body weight,"beagle dogs; female dogs, 6.25 mg/kg, day 22",7.2 ± 0.6 kg
same,Body weight,"beagle dogs; female dogs, 6.25 mg/kg, day 29",7.3 ± 0.58 kg
same,Body weight,"beagle dogs; female dogs, 6.25 mg/kg, day 36",7.3 ± 0.59 kg
same,Body weight,"beagle dogs; male dogs, 3.33 mg/kg, day 1",10.1 ± 1.1 kg
same,Body weight,"beagle dogs; male dogs, 3.33 mg/kg, day 8",10 ± 1.04 kg
same,Body weight,"beagle dogs; male dogs, 3.33 mg/kg, day 15",9.9 ± 1.15 kg
same,Body weight,"beagle dogs; male dogs, 3.33 mg/kg, day 22",10.2 ± 1.21 kg
same,Body weight,"beagle dogs; male dogs, 3.33 mg/kg, day 29",10.1 ± 1.21 kg
same,Body weight,"beagle dogs; male dogs, 3.33 mg/kg, day 36",10 ± 1.36 kg
same,Body weight,"beagle dogs; male dogs, 6.25 mg/kg, day 1",9.9 ± 0.83 kg
same,Body weight,"beagle dogs; male dogs, 6.25 mg/kg, day 8",9.8 ± 0.85 kg
same,Body weight,"beagle dogs; male dogs, 6.25 mg/kg, day 15",9.5 ± 0.57 kg
same,Body weight,"beagle dogs; male dogs, 6.25 mg/kg, day 22",9.2 ± 0.57 kg
same,Body weight,"beagle dogs; male dogs, 6.25 mg/kg, day 29",9.2 ± 0.46 kg
same,Body weight,"beagle dogs; male dogs, 6.25 mg/kg, day 36",9.1 ± 0.58 kg
